The term logP denotes a log measure of how a compound divides between an organic and an aqueous phase. A higher logP goes with higher lipophilicity.

logP data for 22 compounds are collected here from the SangsterLogP compilation.

`O=[N+]([O-])c1cc(F)ccc1F` yielded a lipophilicity (logP) of 1.86. Under `O=[N+]([O-])c1cc(F)cc(F)c1` stands 2.03.

In turn, `CC(=O)c1ccccc1Br` gave a logP of 2.28.

Take `CC(=O)c1cccc(Cl)c1`: the logP was determined as 2.43.

In turn, `CC(=O)c1ccc(Br)cc1` came in with a logP of 2.57. `O=[N+]([O-])c1ccc(F)cc1` came in with a logP of 1.89. The value for `O=C(CBr)c1ccccc1` was 2.19. The value for `O=Cc1ccccc1Cl` was 2.28. In turn, `OC1CCCc2ccccc21` (configuration not stated) displayed a logP of 1.98.

With `OCC1c2ccccc2-c2ccccc21`, the logP was 2.89. Consider `Cc1cc2ccccc2o1`, for which the logP worked out at 3.22. Under `CC(O)c1ccc2ccccc2c1` (configuration not stated) stands 2.68; under `O=[N+]([O-])c1ccccc1F`, 1.84. The value for `CCCc1ccccc1O` was 2.93. Under `Oc1ccc2c(c1)CCCC2` stands 2.9; under `OCc1cccc2ccccc12`, 2.37. For `O=Cc1cccc(Cl)c1`, the logP is 2.26. This logP and that of the compound before are within 0.2 log units of each other. Under `Oc1cccc2c(O)cccc12` stands 2.19. Under `Oc1ccc2cc(O)ccc2c1` stands 1.9; under `O=[N+]([O-])c1cccc(F)c1`, 2.02; under `CC(=O)c1cccc(Br)c1`, 2.58. As to `Oc1cc2ccccc2cc1O`, the logP stood at 2.24.
